From US8236339B2, “Therapeutic delivery of carbon monoxide” (priority 2001, dated 2012)
Marks after values point to notes of the source that are not given here.

Assays:
[1] = Systemic blood pressure and heart rate in anaesthetised Sprague-Dawley rats; format: in vivo, rat
Procedure: Adult male Sprague-Dawley rats (280-350 g, 8-10 weeks of age) were bred in-house at the Northwick Park Institute for Medical Research (Harrow, UK). Rats were housed in groups of 3 in cages under a 12 h cycle of day/night, with free access to drinking water and fed ad libitum. All surgical procedures were performed in compliance with U.K. Home Office regulations. Rats were anaesthetised in a polycarbonate chamber in a stream of Enflurane™ (Abbot, UK) in oxygen before being transferred onto a mask and continuously supplied with Enflurane™ throughout the experiment with an anaesthetic machine (Aimed, UK). During the surgical procedure the rats were kept at a constant body temperature of 37° C. using a heat pad positioned underneath the operating surface. Specially designed femoral artery and venous catheters were then surgically implanted as previously described (see ref. 40). The catheter in the artery was connected via a luer connector and a three-way tap to a pressure transducer (Gould model P23ID, Statham, USA) for continuous mean arterial pressure (MAP) and heart rate (HR) monitoring. A purpose-built tail-cuff pressure transducer (ADInstruments, UK) was also placed on the tail of the rat and pressure transducer and tail cuff were connected to a polygraph recorder (Grass, Model 7D, Astra-med, UK) pre-calibrated in millimeters of mercury (mmHg). An analogue output provided data for a computer-based data acquisition system (PowerLab™, ADInstruments, UK). The computer-based system was set to record mean arterial pressure (MAP), in mmHg, and heart rate (HR), in beats/min (bpm), for the duration of the experiment. […] Once a stable pressure had been reached, each catheter was flushed with saline containing heparin and no further changes were made to the anaesthetic supply. Ru(CO)3Cl(glycinato) (CO-RM-3) was prepared in stock solutions of 20, 60 and 120 μmoles·ml^−1 by solubilizing the compound in saline. […] CO-RM-3 (or the negative control) was then infused into the animal via the femoral vein catheter as a bolus so that the final concentration infused was 10, 30 or 60 μmoles·kg^−1 body weight. Throughout the experiment MAP and HR were continuously recorded and monitored. Although concentrations of 10, 30 and 60 μmoles·kg^−1 were infused into each animal, the resulting concentrations in the animal were cumulative. Therefore, the final concentration attained in the animal was 10, 40 and 100 μmoles·kg^−1, respectively.
The results are presented in Table 2, where the data shown represents samples taken at baseline (just before infusion of the compound) and directly after administration of 10, 30 and 60 μmoles·kg^−1 of the compound. All data are mean i SEM. n=3 independent experiments. *P<0.05 vs. baseline.

[2] = tested on: deoxymyoglobin (deoxy-Mb); assay: Myoglobin assay: conversion of deoxy-Mb to MbCO on direct addition of metal carbonyl; format: biochemical, horse; conditions: direct addition to myoglobin solution (66 μM), no light
Procedure: The release of CO from metal carbonyl complexes was assessed spectrophotometrically by measuring the conversion of deoxymyoglobin (deoxy-Mb) to carbonmonoxy myoglobin (MbCO). MbCO has a distinctive absorption spectrum between 500 and 600 nm, and changes at 540 nm were used to quantify the amount of CO liberated. Myoglobin solutions (66 μM final concentration) were prepared freshly by dissolving the protein in 0.04 M phosphate buffer (pH 6.8). Sodium dithionite (0.1%) was added to convert myoglobin to deoxy-Mb prior to each reading. All the spectra were measured using a Helios a spectrophotometer.
Various metal carbonyl complexes were tested for their ability to elicit MbCO formation when added directly to a deoxy-Mb solution. To different extents, [Ru(CO)3Cl2]2, [Ru(CO)2(DMSO)2Cl2], [Ru(CO)3Cl2(cytosine)] and […] all released CO when added directly to the Mb solution.
The metal carbonyl complex was solubilized in DMSO (9.7 mM stock solution), aliquots of 2 to 32 μl were added directly to 1 ml of deoxy-Mb solutions (66 μM) and absorption spectrum determined immediately after mixing the samples by inversion.

RAW 264.7 macrophages [3] = conditions: 24 h, LPS 3 μg/ml with or without CO-RM-3 10, 50 and 100 μM
Procedure: Mouse RAW 264.7 macrophages were cultured in 24 wells using DMEM medium Confluent cells were incubated for 24 h with E. Coli lipopolysaccharide (LPS, 3 μg/ml) in the presence or absence of increasing concentrations of CO-RM-3 (10, 50 and 100 μM). Control cells were exposed to culture medium alone. […] Cell viability was also assessed in macrophages 24 h after treatment with the various agents as described in reference 47.

[4] = Cardiac transplant rejection, BALB/c hearts into CBA mice; format: in vivo, mouse; conditions: 40 mg/kg i.p. doses
Procedure: Hearts from male BALB/c mouse (25-30 g) were used as donor organs for transplantation into male CBA mice (25-30 g). Mice were housed in groups of 3 in cages under a 12 h cycle of day/night, with free access to drinking water and fed ad libitum. All surgical procedures were performed in compliance with U.K. Home Office regulations. Animals were anaesthetized by an intraperitoneal injection of ketamine/xylazine during all procedures. The surgical technique involved the transplantation of the cardiac allograft into the recipient's neck as previously described (51). Graft survival was assessed daily by palpation, and rejection was diagnosed by cessation of ventricular contractions.
Ru(CO)3Cl(glycinato) was dissolved in 0.1 ml saline and administered intraperitoneally. All doses are 40 mg/kg of Ru(CO)3Cl(glycinato). The donors received two doses of Ru(CO)3Cl(glycinato) respectively at 1 day and 15 min prior to cardiac harvest. The recipients received doses of Ru(CO)3Cl(glycinato) at 1 day before surgery, 30 min prior to cardiac reperfusion and 1 h after transplantation (Day 0). Thereafter, graft recipients received a daily dose of Ru(CO)3Cl(glycinato) from day 1 to day 8(inclusive) post-transplant. In the control group, recipients received an equivalent dose of saline (vehicle) 1 day before and each day (days 1 to 8) after cardiac transplantation. Carprofen (0.01 mg) was given subcutaneously for pain relief immediately after transplantation to all animals. The results of this study are shown in FIG. 10. n=5 for each group. *p<0.002 vs. control. BALE/c hearts transplanted into CBA mice following treatment with saline (control group) underwent rejection'very rapidly. 100% of hearts stopped beating within 9 days of transplantation.

[5] = tested on: aortic rings pre-contracted with phenylephrine; assay: Relaxation of isolated aortic rings pre-contracted with phenylephrine; design: species or system rat
Procedure: Transverse ring sections of thoracic aorta were isolated from male Lewis rats and suspended under a 2 g tension in an organ bath containing oxygenated Krebs-Henseleit buffer at 37° C. as previously described (23). The relaxation response to cumulative doses of metal carbonyl (dissolved in DMSO—see section 2) was assessed in aortic rings pre-contracted with phenylephrine (3 μM). Control rings were similarly treated by adding equal doses of DMSO (vehicle) to the organ bath.

RAW 264.7 macrophages [6] = assay: Nitrite (NO) production in LPS-stimulated macrophages, Griess reagent method; format: cell-based, mouse; conditions: 10, 50 and 100 μM, 24 h with LPS 3 μg/ml
Description: Control cells were exposed to culture medium alone.

[7] = directly after i.v. bolus 10 μmol/kg
[8] = directly after i.v. bolus 30 μmol/kg (cumulative 40)
[9] = cumulative doses, phenylephrine 3 μM

NCC(=O)O.[C-]#[O+].[C-]#[O+].[C-]#[O+].[Cl][Ru] [CO-RM-3, Ru(CO)3Cl (NH2CH2CO2)]
transient decrease in MAP ([1]; 10 μmoles·kg^−1 bolus infusion): 6±2 mmHg | transient decrease in MAP ([1]; 30 μmoles·kg^−1 bolus infusion): 8±3 mmHg | transient decrease in MAP ([1]; 60 μmoles·kg^−1 bolus infusion): 14±0.3 mmHg | effects on HR or MAP (in words) ([1]; 10, 30 or 60 μmoles·kg^−1): concentration-dependent transient decrease in MAP | period of return of MAP to baseline ([1]; after bolus infusion): 10 min | HR, 10 μmol.kg^−1 [1, 7]: 276 ± 20 bpm | MAP, 10 μmol.kg^−1 [1, 7]: 73 ± 2 mmHg | HR, 30 μmol.kg^−1 [1, 8]: 261 ± 22 bpm | MAP, 30 μmol.kg^−1 [1, 8]: 72 ± 7 mmHg | MAP, 60 μmol.kg^−1 ([1]; directly after i.v. bolus 60 μmol/kg (cumulative 100)): 65 ± 4* mmHg | HR, 60 μmol.kg^−1 ([1]; directly after i.v. bolus 60 μmol/kg (cumulative 100), listed as Ru(CO)3Cl(glycinate)): 253 ± 23 bpm | HR, 60 μmol.kg^−1 ([1]; directly after i.v. bolus 60 μmol/kg (cumulative 100), listed as Ru(CO)3Cl(glycinato)): 253±23 bpm | MAP, Baseline ([1]; just before infusion of the compound): 79 ± 2 mmHg | HR, Baseline ([1]; just before infusion of the compound, listed as Ru(CO)3Cl(glycinate)): 270 ± 20 bpm | HR, Baseline ([1]; just before infusion of the compound, listed as Ru(CO)3Cl(glycinato)): 270±20 bpm | MbCO formation / CO release when added directly to deoxy-Mb solution ([2]; listed as [Bu(CO)3(glycinate)Cl]): released CO | MbCO formation / CO release when added directly to deoxy-Mb solution ([2]; listed as [Ru(CO)3(glycinato)Cl]): high release of CO | cell viability of macrophages (RAW 264.7 macrophages [3]): did not affect cell viability | survival time of transplanted hearts (in words) ([4]; vs. saline control): significantly prolonged | hearts still beating ([4]; 18 days after transplantation): 100% | mice without any sign of rejection ([4]; 25 days after heart transplantation): 60% | transplanted hearts still viable ([4]; at 30 days): 40% | vasodilatory effect on pre-contracted aortic rings (in words) ([5]; consecutive additions): elicited significant vasodilatation | % Relaxation, 1st addition [5, 9]: 36% | % Relaxation, 2nd addition [5, 9]: 66.6% | % Relaxation, 3rd addition [5, 9]: 68.3% | nitrite generation in LPS-stimulated macrophages (RAW 264.7 macrophages [6]): significantly attenuated nitrite generation in a concentration dependent manner
